What was measured:
Androgen receptor = target: T1, Androgen receptor (Rattus norvegicus, UniProt P15207); type: functional
T1 sequence (P15207 whole entry): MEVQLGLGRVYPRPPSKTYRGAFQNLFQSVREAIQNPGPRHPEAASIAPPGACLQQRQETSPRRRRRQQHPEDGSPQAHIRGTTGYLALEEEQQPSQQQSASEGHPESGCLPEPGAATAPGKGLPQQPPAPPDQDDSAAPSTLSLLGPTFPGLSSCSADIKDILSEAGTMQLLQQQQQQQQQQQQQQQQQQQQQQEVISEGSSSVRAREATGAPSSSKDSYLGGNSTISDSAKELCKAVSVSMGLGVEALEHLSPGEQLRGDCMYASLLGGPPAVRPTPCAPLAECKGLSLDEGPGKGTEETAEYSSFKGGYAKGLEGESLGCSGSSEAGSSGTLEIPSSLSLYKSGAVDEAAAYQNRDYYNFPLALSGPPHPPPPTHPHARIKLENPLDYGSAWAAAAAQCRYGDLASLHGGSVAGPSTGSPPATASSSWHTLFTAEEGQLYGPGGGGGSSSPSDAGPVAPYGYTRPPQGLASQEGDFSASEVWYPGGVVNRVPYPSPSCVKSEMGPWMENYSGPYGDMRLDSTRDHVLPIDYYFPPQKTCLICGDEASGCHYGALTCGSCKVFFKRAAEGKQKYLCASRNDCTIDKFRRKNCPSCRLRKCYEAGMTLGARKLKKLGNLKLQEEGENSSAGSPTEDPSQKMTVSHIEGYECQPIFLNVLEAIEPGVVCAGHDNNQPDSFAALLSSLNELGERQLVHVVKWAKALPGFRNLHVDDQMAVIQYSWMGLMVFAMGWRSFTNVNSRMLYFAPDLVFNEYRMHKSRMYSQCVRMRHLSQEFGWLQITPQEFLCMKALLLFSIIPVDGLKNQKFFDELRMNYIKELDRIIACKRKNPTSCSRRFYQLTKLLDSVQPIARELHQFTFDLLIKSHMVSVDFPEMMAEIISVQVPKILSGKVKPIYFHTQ

[1] = target: Sodium channel protein type 5 subunit alpha (Homo sapiens, UniProt Q14524); type: functional, cell-based
[2] = target: Beta-3 adrenergic receptor (Homo sapiens, UniProt P13945)
Histamine H2 receptor = Histamine H2 receptor (Homo sapiens, UniProt P25021)
[3] = target: T2, Neuropeptide Y receptor type 2 (Homo sapiens, UniProt P49146)
T2 sequence (P49146 whole entry): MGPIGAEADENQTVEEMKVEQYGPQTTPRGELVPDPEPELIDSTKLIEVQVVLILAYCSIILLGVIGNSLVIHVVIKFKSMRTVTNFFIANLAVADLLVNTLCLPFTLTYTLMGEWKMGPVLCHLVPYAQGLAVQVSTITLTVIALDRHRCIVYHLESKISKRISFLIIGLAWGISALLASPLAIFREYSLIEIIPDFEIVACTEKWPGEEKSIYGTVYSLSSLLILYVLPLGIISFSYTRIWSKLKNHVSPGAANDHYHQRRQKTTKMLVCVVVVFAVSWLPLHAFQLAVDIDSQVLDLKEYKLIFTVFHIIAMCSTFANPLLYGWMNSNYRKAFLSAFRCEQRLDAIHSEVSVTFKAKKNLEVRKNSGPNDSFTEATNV

Progesterone receptor = target: T3, Progesterone receptor (Homo sapiens, UniProt P06401)
T3 sequence (P06401 whole entry): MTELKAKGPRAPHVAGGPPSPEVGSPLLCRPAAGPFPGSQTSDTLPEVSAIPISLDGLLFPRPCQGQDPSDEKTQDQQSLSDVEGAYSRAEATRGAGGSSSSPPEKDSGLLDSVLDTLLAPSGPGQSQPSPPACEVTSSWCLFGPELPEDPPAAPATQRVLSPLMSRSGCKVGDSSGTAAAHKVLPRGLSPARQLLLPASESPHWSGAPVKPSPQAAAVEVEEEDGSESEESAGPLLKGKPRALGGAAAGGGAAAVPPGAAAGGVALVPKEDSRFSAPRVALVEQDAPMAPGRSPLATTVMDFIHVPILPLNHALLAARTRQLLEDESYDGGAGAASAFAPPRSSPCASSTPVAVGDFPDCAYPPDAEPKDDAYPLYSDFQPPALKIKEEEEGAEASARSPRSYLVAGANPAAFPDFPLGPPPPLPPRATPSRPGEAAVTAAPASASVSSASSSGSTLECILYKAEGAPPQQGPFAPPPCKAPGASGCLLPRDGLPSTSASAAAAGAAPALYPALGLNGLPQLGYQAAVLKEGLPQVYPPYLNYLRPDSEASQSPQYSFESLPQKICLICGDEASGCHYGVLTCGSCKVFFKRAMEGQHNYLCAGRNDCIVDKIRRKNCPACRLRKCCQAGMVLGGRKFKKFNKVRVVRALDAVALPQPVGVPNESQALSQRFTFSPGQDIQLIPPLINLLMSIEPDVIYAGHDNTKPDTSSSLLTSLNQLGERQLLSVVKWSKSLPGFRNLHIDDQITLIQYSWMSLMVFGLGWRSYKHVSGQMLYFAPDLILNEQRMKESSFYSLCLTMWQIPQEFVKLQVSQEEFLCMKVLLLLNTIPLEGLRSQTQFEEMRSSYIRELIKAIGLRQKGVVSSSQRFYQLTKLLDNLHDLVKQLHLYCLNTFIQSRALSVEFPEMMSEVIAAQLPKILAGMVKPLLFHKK

[4] = target: T4, Alpha-2A adrenergic receptor (Homo sapiens, UniProt P08913)
T4 sequence (P08913 whole entry): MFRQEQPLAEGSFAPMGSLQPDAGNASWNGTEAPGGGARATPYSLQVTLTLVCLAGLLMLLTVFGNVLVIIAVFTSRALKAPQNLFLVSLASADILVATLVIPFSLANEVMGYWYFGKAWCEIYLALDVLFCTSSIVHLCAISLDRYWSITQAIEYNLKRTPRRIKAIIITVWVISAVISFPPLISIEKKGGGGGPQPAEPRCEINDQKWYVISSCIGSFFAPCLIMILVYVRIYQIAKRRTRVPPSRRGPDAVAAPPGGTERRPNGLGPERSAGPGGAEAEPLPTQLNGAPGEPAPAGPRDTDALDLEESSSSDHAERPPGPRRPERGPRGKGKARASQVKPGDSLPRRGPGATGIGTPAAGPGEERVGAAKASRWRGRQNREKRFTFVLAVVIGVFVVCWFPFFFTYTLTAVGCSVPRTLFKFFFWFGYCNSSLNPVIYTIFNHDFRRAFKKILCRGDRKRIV
Further: assay procedure not described here.

Chain of Sodium channel protein type 5 subunit alpha (Q14524 whole entry): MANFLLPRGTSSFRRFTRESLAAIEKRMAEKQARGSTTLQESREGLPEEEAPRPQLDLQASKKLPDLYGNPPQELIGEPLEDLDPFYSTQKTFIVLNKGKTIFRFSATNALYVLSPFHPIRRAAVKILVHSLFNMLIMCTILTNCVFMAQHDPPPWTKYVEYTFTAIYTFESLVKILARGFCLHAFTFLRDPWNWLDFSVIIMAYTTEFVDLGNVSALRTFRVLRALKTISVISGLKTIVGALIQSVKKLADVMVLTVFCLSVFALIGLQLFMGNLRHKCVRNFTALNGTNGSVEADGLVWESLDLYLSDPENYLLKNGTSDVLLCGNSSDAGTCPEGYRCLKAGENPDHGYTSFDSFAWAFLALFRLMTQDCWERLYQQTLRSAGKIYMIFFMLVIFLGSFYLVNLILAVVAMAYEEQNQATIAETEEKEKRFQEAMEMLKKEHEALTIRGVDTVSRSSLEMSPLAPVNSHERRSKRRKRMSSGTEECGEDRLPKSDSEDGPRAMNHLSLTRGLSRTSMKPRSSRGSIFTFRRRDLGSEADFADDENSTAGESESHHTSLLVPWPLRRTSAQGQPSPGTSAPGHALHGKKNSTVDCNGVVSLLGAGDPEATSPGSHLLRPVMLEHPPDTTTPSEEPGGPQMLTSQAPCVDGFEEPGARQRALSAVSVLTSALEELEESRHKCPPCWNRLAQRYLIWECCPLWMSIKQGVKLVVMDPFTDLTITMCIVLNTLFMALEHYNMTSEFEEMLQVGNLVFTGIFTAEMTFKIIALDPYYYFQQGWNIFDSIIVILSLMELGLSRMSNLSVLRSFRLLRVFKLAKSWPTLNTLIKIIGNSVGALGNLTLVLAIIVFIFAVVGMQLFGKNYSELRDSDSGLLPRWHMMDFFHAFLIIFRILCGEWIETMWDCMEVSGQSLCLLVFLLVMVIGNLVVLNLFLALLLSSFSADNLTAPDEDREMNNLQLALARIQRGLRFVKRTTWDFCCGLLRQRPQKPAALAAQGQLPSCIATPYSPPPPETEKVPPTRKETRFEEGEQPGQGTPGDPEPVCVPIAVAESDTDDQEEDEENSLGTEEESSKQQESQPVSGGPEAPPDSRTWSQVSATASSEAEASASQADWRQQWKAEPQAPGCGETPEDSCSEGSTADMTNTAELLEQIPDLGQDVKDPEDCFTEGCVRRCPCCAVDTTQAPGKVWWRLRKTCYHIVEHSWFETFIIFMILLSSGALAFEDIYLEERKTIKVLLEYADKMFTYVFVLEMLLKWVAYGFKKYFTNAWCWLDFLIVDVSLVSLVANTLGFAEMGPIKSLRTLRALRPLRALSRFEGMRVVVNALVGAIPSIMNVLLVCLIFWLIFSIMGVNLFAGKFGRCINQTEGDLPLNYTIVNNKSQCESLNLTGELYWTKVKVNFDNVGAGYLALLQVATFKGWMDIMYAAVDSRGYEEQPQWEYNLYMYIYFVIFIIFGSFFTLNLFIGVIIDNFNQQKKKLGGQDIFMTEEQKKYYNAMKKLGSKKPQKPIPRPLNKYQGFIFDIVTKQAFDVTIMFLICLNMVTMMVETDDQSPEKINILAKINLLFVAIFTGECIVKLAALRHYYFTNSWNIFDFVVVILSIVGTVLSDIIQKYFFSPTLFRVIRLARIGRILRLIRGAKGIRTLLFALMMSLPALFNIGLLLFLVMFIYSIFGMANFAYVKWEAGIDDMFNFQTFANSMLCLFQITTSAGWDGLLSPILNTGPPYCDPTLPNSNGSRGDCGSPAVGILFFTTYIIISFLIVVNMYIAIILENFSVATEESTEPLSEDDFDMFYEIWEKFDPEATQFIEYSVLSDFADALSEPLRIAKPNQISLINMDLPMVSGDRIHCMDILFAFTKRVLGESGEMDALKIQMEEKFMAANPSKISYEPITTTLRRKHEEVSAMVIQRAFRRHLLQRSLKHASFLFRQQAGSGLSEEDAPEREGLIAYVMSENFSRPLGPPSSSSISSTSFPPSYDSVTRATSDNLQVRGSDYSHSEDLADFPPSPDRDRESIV
Chain of Beta-3 adrenergic receptor (P13945 whole entry): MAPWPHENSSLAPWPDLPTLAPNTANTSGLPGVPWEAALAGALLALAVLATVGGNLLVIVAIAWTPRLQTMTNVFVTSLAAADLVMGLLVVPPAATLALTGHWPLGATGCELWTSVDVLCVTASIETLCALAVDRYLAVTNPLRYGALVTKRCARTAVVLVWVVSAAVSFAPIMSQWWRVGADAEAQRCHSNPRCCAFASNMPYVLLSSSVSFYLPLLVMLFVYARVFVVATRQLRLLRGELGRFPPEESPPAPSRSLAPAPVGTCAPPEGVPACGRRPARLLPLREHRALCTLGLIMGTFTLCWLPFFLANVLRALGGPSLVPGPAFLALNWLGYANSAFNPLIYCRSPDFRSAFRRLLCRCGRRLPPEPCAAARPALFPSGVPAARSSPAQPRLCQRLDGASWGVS
Chain of Histamine H2 receptor (P25021 whole entry): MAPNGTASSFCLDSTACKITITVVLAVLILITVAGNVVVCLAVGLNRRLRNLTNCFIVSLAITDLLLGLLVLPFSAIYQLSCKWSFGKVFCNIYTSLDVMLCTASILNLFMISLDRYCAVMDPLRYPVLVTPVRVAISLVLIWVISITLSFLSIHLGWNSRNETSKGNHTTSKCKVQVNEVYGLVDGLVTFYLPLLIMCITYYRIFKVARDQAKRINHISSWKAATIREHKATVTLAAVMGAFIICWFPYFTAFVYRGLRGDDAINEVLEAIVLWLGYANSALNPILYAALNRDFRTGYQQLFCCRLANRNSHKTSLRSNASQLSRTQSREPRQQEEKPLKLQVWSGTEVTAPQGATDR

SMILES | AC50 (Androgen receptor) | AC50 [1] | AC50 [2] | AC50 (Histamine H2 receptor) | AC50 [3] | AC50 (Progesterone receptor) | AC50 [4]
C[N+](C)(C)CCOP(=O)([O-])OC[C@H](O)CO | > 30 µM | – | – | – | – | – | –
CN(C)C/C=C/C(=O)Nc1cc2c(Nc3ccc(F)c(Cl)c3)ncnc2cc1O[C@H]1CCOC1 [AFATINIB] | > 30 µM | > 50 µM | – | – | – | – | –
CCC1(c2ccc(N)cc2)CCC(=O)NC1=O (configuration not stated) [AMINOGLUTETHIMIDE] | > 30 µM | – | – | – | – | – | –
CC1=C(C(=O)OC(C)C)C(c2cccc([N+](=O)[O-])c2)C(C(=O)OC2CN(C(c3ccccc3)c3ccccc3)C2)=C(N)N1 (configuration not stated) [AZELNIDIPINE] | – | > 50 µM | – | – | – | – | –
O=C(/C=C/c1cccc(S(=O)(=O)Nc2ccccc2)c1)NO [BELINOSTAT] | – | – | > 30 µM | > 10 µM | > 10 µM | > 30 µM | > 10 µM
CC(O)(CS(=O)(=O)c1ccc(F)cc1)C(=O)Nc1ccc(C#N)c(C(F)(F)F)c1 (configuration not stated) [BICALUTAMIDE] | – | > 30 µM | > 30 µM | > 10 µM | > 30 µM | > 30 µM | > 10 µM
O=C(O)COCCN1CCN(C(c2ccccc2)c2ccc(Cl)cc2)CC1 (configuration not stated) [CETIRIZINE] | – | > 30 µM | > 30 µM | – | > 30 µM | > 30 µM | > 10 µM
C[C@H](CCC(=O)O)[C@H]1CC[C@H]2[C@@H]3[C@H](O)C[C@@H]4C[C@H](O)CC[C@]4(C)[C@H]3C[C@H](O)[C@]12C [CHOLIC ACID] | – | > 50 µM | – | – | – | – | –
CC(=O)O[C@]1(C(C)=O)CC[C@H]2[C@@H]3C=C(Cl)C4=CC(=O)[C@@H]5C[C@@H]5[C@]4(C)[C@H]3CC[C@@]21C [CYPROTERONE ACETATE] | – | – | > 30 µM | > 10 µM | – | – | > 10 µM
C[C@@H]1C[C@H]2[C@@H]3C[C@H](F)C4=CC(=O)C=C[C@]4(C)[C@@]3(F)[C@@H](O)C[C@]2(C)[C@@]1(OC(=O)c1ccco1)C(=O)SCF [FLUTICASONE FUROATE] | – | – | – | > 10 µM | > 10 µM | – | > 10 µM
CNCCc1ccc(OC(=O)C(C)C)c(OC(=O)C(C)C)c1 [IBOPAMINE] | > 30 µM | – | – | – | – | – | –
CN(C)CCCN1c2ccccc2CCc2ccccc21 [IMIPRAMINE] | – | – | > 30 µM | 0.0697 µM | > 30 µM | > 30 µM | > 10 µM
CCOC(=O)C1=C(C)NC(C)=C(C(=O)OCC)C1c1ccccc1/C=C/C(=O)OC(C)(C)C [LACIDIPINE] | > 30 µM | > 50 µM | – | – | – | – | –
CN(Cc1cnc2nc(N)nc(N)c2n1)c1ccc(C(=O)N[C@@H](CCC(=O)O)C(=O)O)cc1 [METHOTREXATE] | – | – | > 30 µM | > 10 µM | > 30 µM | > 30 µM | > 10 µM
Cc1cccc(C)c1NC(=O)CC12CCCN1CCC2 [PILSICAINIDE] | – | > 50 µM | – | – | – | – | –
CC(C)c1cccc(C(C)C)c1O [PROPOFOL] | > 30 µM | – | – | – | – | – | –
CN[C@@H](C)[C@@H](O)c1ccccc1 [PSEUDOEPHEDRINE] | – | – | > 30 µM | > 10 µM | > 30 µM | > 30 µM | > 10 µM
CCCN1CC(NS(=O)(=O)N(CC)CC)CC2Cc3c(O)cccc3CC21 (configuration not stated) [QUINAGOLIDE] | > 30 µM | – | – | – | – | – | –
O=C1OC(OC(=O)c2cccnc2Nc2cccc(C(F)(F)F)c2)c2ccccc21 (configuration not stated) [TALNIFLUMATE] | > 30 µM | – | – | – | – | – | –
O=S1(=O)CCN(CN2CCS(=O)(=O)NC2)CN1 [TAUROLIDINE] | > 30 µM | – | – | – | – | – | –
CCOC(=O)c1c(CSc2ccccc2)n(C)c2cc(Br)c(O)c(CN(C)C)c12 [UMIFENOVIR] | > 30 µM | – | – | – | – | – | –

Source: ChEMBL document CHEMBL5291721, “A preclinical secondary pharmacology resource illuminates target-adverse drug reaction associations of marketed drugs” (Nat Commun, 2023)
